For assay [1], the system named is ERK1/2 phosphorylation in Panc-1 cells. In words: Western ERK1/2 cell-based phosphorylation assay. Also noted: species or system human. The following applies: at 10 μM, values in brackets < > are activation %, not inhibition. Put shortly: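 Panc-1 cells starved overnight in 0.5% FBS, then exposed 6 h at 37 °C to compound at 10 μM final (0.3% DMSO) or serial dilutions for IC50. Stimulation with 1.5 ng/ml EGF for 15 min; phospho-ERK1/2 (Thr202/Tyr204) read by western blot on equal protein loads.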

In assay [2] the test system is Akt phosphorylation in Panc-1 cells. In words: Western AKT cell-based phosphorylation assay. As to conditions: at 10 μM, values in brackets < > are activation %, not inhibition. Also noted: species or system human. Put shortly:
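Panc-1 cells starved overnight in 0.5% FBS, exposed to compound at 10 μM (0.3% DMSO) for 6 h at 37° C, then stimulated with 1.5 ng/ml EGF for 15 min. Lysates probed by western blot with anti-phospho-Akt (Ser473), equal protein loading checked by Ponceau S.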

Another assay addresses Rho-A (Homo sapiens, UniProt P61586). Put plainly: Ras GTP binding domain inhibition assay (labeled-GTP competition, cell-free). Also noted: made in house. Put shortly:
(§1)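 His-tagged GTPases were coated at 10-30 μg/mL onto nickel plates overnight at 4° C, then exposed to compound (20 μM, or serial dilutions for IC50) in buffer with 1% DMSO for 3 h at room temperature, with or without 10-30 μg/mL His-Sos (556-1049) in the final hour. Cy3- or Cy5-GTP (100 nM, 45 min) binding was measured after washing.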

A further assay concerns the target Rac-1 (Homo sapiens, UniProt P63000). Described as above. Details: made in house. Put shortly:
as §1

The target of the next assay is KRas wild type (Homo sapiens, UniProt P01116). Described as above. Also noted: made in house. Put shortly:
as §1

Where [3] appears, read: without SOS, read-out: Rho-A: % inh.
[4] abbreviates: without SOS, read-out: Rac-1: % inh.
Where [5] appears, read: with SOS, read-out: KRas wild type + SOS: % inh.
[6] abbreviates: without SOS, read-out: KRas wild type: % inh.
Where [7] appears, read: with SOS, read-out: Rho-A + SOS: % inh.
Setting [8] is: with SOS, read-out: Rac-1 + SOS: % inh.

Read-outs that look alike come from different tables or passages of the source.

Take `CO[C@H]1CC[C@@H](Nc2nc(-c3nccn3C)nc3sc(-c4ccn(C(C)C)n4)c(C(F)(F)F)c23)C1` (racemic) [Compound 73, Rac-6-(1-isopropyl-1H-pyrazol-3-yl)-N-((1R,3S)-3-methoxycyclopentyl)-2-(1-methyl-1H-imidazol-2-yl)-5-(trifluoromethyl)thieno[2,3-d]pyrimidin-4-amine]: the “% inh of ERK1/2 phosphorylation in PANC-1” value in assay [1] is listed as “D (76-100% inhibition)”. The “% inh of AKT phosphorylation in PANC-1” value in assay [2] is “A (1-25% inhibition)”. Further, the inhibition at 20 µM on Rho-A (setting [3]) lay within 51 to 75%; on Rac-1 (setting [4]), 1 to 25%; on KRas wild type (setting [5]), 76 to 100%; at KRas wild type (setting [6]), 1 to 25%.

For `COCC1CCN(c2nc(-c3nccn3C)nc3sc(-c4ccn(C(C)C)n4)c(C(F)(F)F)c23)C1` (racemic) [Compound 74, Rac-6-(1-Isopropyl-1H-pyrazol-3-yl)-4-(3-(methoxymethyl)pyrrolidin-1-yl)-2-(1-methyl-1H-imidazol-2-yl)-5-(trifluoromethyl)thieno[2,3-d]pyrimidine], in assay [1], the “% inh of ERK1/2 phosphorylation in PANC-1” value is recorded as “D (76-100% inhibition)”. Also, the “% inh of AKT phosphorylation in PANC-1” value in assay [2] is listed as 0 (0% inhibition). In addition, the inhibition at 20 µM was in the range of 51 to 75% on Rho-A (setting [3]), 1 to 25% at Rac-1 (setting [4]), 76 to 100% on KRas wild type (setting [5]) and 26 to 50% on KRas wild type (setting [6]).

For `COC1CCCN(c2nc(-c3nccn3C)nc3sc(-c4ccn(C(C)C)n4)c(C(F)(F)F)c23)C1` (racemic) [Compound 75, Rac-6-(1-Isopropyl-1H-pyrazol-3-yl)-4-(3-methoxypiperidin-1-yl)-2-(1-methyl-1H-imidazol-2-yl)-5-(trifluoromethyl)thieno[2,3-d]pyrimidine], in assay [1], the “% inh of ERK1/2 phosphorylation in PANC-1” value is reported as “D (76-100% inhibition)”. In assay [2], the “% inh of AKT phosphorylation in PANC-1” value was 0 (0% inhibition). Besides, the inhibition at 20 µM lay in the range of 51 to 75% on Rho-A (setting [3]), 1 to 25% at Rac-1 (setting [4]), 51 to 75% at KRas wild type (setting [5]) and 26 to 50% at KRas wild type (setting [6]).

In the case of `COCC1CCN(c2nc(-c3nccn3C)nc3sc(-c4ccn(C(C)C)n4)c(-c4ccccc4)c23)C1` (racemic) [Compound 76, Rac-6-(1-isopropyl-1H-pyrazol-3-yl)-4-(3-(methoxymethyl)pyrrolidin-1-yl)-2-(1-methyl-1H-imidazol-2-yl)-5-phenylthieno[2,3-d]pyrimidine], the “% inh of ERK1/2 phosphorylation in PANC-1” value in assay [1] is “D (76-100% inhibition)”. In addition, the “% inh of AKT phosphorylation in PANC-1” value in assay [2] is given as 0 (0% inhibition). Further, the inhibition at 20 µM on Rho-A (setting [3]) lay in the range of 26 to 50%; on Rac-1 (setting [4]), 1 to 25%; on KRas wild type (setting [5]), 51 to 75%; on KRas wild type (setting [6]) it was 51 to 75%.

For `COC1CCCN(c2nc(-c3nccn3C)nc3sc(-c4ccn(C(C)C)n4)c(-c4ccccc4)c23)C1` (racemic) [Compound 77, Rac-6-(1-isopropyl-1H-pyrazol-3-yl)-4-(3-methoxypiperidin-1-yl)-2-(1-methyl-1H-imidazol-2-yl)-5-phenylthieno[2,3-d]pyrimidine], the “% inh of ERK1/2 phosphorylation in PANC-1” value in assay [1] is “B (26-50% inhibition)”. Moreover, in assay [2], the “% inh of AKT phosphorylation in PANC-1” value is listed as “<A>”. In addition, the inhibition at 20 µM at Rho-A (setting [3]) fell in the range of 26 to 50%; at Rac-1 (setting [4]), 1 to 25%; at KRas wild type (setting [5]) it was 26 to 50%; at KRas wild type (setting [6]), 26 to 50%.

On to `CO[C@H]1CC[C@@H](Nc2nc(-c3nccn3C)nc3sc(-c4cc[nH]n4)c(-c4ccccc4)c23)C1` (racemic) [Example 1, Rac-N-((1R,3S)-3-methoxycyclopentyl)-2-(1-methyl-1H-imidazol-2-yl)-5-phenyl-6-(1H-pyrazol-3-yl)thieno[2,3-d]pyrimidin-4-amine], for which the “% inh of ERK1/2 phosphorylation in PANC-1” value in assay [1] is reported as 0 (0% inhibition). In addition, in assay [2], the “% inh of AKT phosphorylation in PANC-1” value was 0 (0% inhibition). In addition, the inhibition at 20 µM on Rho-A (setting [7]) was 0%; on Rho-A (setting [3]), 1 to 25%; at Rac-1 (setting [8]), 1 to 25%; on Rac-1 (setting [4]) it was 0%; on KRas wild type (setting [5]), 1 to 25%; at KRas wild type (setting [6]), 0%.

Consider `CO[C@H]1CC[C@@H](Nc2nc(-c3nccn3C)nc3sc(-c4ccn(C(C)C)n4)c(-c4ccccc4)c23)C1` [Compound 5, 6-(1-Isopropyl-1H-pyrazol-3-yl)-N-((1R,3S)-3-methoxycyclopentyl)-2-(1-methyl-1H-imidazol-2-yl)-5-phenylthieno[2,3-d]pyrimidin-4-amine], for which, in assay [1], the “% inh of ERK1/2 phosphorylation in PANC-1” value is “D (76-100% inhibition)”. In addition, the “% inh of AKT phosphorylation in PANC-1” value in assay [2] is “D (76-100% inhibition)”. The inhibition at 20 µM lay in the range of 51 to 75% at Rho-A (setting [7]); 51 to 75% on Rho-A (setting [3]); 26 to 50% on Rac-1 (setting [8]); 26 to 50% on Rac-1 (setting [4]); 76 to 100% on KRas wild type (setting [5]); 51 to 75% on KRas wild type (setting [6]).

Consider `COCCn1ccnc1-c1nc(N[C@H]2C[C@@H](OC)C2)c2c(-c3ccccc3)c(-c3ccn(C)n3)sc2n1` [Compound 7, N-((1s,3s)-3-Methoxycyclobutyl)-2-(1-(2-methoxyethyl)-1H-imidazol-2-yl)-6-(1-methyl-1H-pyrazol-3-yl)-5-phenylthieno[2,3-d]pyrimidin-4-amine], for which the “% inh of ERK1/2 phosphorylation in PANC-1” value in assay [1] is “D (76-100% inhibition)”. The “% inh of AKT phosphorylation in PANC-1” value in assay [2] is on record as 0 (0% inhibition). The inhibition at 20 µM at Rho-A (setting [7]), on Rho-A (setting [3]), on Rac-1 (setting [8]), on Rac-1 (setting [4]), at KRas wild type (setting [5]) and on KRas wild type (setting [6]) was 76 to 100% each time.

On to `COCCn1ccnc1-c1nc(N[C@H]2C[C@@H](OC)C2)c2ccsc2n1` [Compound 9, N-((1s,3s)-3-Methoxycyclobutyl)-2-(1-(2-methoxyethyl)-1H-imidazol-2-yl)thieno[2,3-d]pyrimidin-4-amine], for which the “% inh of ERK1/2 phosphorylation in PANC-1” value in assay [1] is 0 (0% inhibition). Besides, the “% inh of AKT phosphorylation in PANC-1” value in assay [2] is listed as 0 (0% inhibition). The inhibition at 20 µM at Rho-A (setting [7]), on Rho-A (setting [3]), on Rac-1 (setting [8]), on Rac-1 (setting [4]), at KRas wild type (setting [5]) and at KRas wild type (setting [6]) was 76 to 100% in each case.

For the compound `NC(=O)c1nc(O)c2scc(-c3ccccn3)c2n1` [Compound 18, 4-Hydroxy-7-(pyridin-2-yl)thieno[3,2-d]pyrimidine-2-carboxamide], the “% inh of ERK1/2 phosphorylation in PANC-1” value in assay [1] is 0 (0% inhibition). The “% inh of AKT phosphorylation in PANC-1” value in assay [2] is 0 (0% inhibition). The inhibition at 20 µM was 26 to 50% at Rho-A (setting [7]); 26 to 50% on Rho-A (setting [3]); 26 to 50% on Rac-1 (setting [8]); 26 to 50% at Rac-1 (setting [4]); 1 to 25% on KRas wild type (setting [5]); 26 to 50% at KRas wild type (setting [6]).

Turning to `O=C(c1nc(O)c2scc(-c3ccccn3)c2n1)N1CCCC1` [Compound 19, (4-Hydroxy-7-(pyridin-2-yl)thieno[3,2-d]pyrimidin-2-yl)(pyrrolidin-1-yl)methanone], the “% inh of ERK1/2 phosphorylation in PANC-1” value in assay [1] is listed as 0 (0% inhibition). In addition, the “% inh of AKT phosphorylation in PANC-1” value in assay [2] is on record as 0 (0% inhibition). Also, the inhibition at 20 µM at Rho-A (setting [7]) fell in the range of 26 to 50%; on Rho-A (setting [3]) it was 26 to 50%; at Rac-1 (setting [8]) it was 1 to 25%; on Rac-1 (setting [4]) it was 1 to 25%; on KRas wild type (setting [5]) it was 1 to 25%; on KRas wild type (setting [6]), 1 to 25%.

For the compound `CC(C)NC(=O)c1nc(O)c2scc(-c3ccccn3)c2n1` [Compound 20, 4-Hydroxy-N-isopropyl-7-(pyridin-2-yl)thieno[3,2-d]pyrimidine-2-carboxamide], the “% inh of ERK1/2 phosphorylation in PANC-1” value in assay [1] was 0 (0% inhibition). Besides, in assay [2], the “% inh of AKT phosphorylation in PANC-1” value is 0 (0% inhibition). For the same compound, the inhibition at 20 µM at Rho-A (setting [7]) was 26 to 50%; on Rho-A (setting [3]), 26 to 50%; on Rac-1 (setting [8]), 26 to 50%; on Rac-1 (setting [4]), 26 to 50%; at KRas wild type (setting [5]), 1 to 25%; at KRas wild type (setting [6]) it was 51 to 75%.

With `COCCNC(=O)c1nc(O)c2scc(-c3ccccn3)c2n1` [Compound 21, 4-Hydroxy-N-(2-methoxyethyl)-7-(pyridin-2-yl)thieno[3,2-d]pyrimidine-2-carboxamide], in assay [1], the “% inh of ERK1/2 phosphorylation in PANC-1” value was 0 (0% inhibition). For the same compound, the “% inh of AKT phosphorylation in PANC-1” value in assay [2] is recorded as 0 (0% inhibition). The inhibition at 20 µM at Rho-A (setting [7]) was 26 to 50%; at Rho-A (setting [3]), 51 to 75%; at Rac-1 (setting [8]) it was 26 to 50%; at Rac-1 (setting [4]), 26 to 50%; on KRas wild type (setting [5]), 1 to 25%; at KRas wild type (setting [6]) it was 26 to 50%.

(Values after patent US20230227466A1, “SUBSTITUTED THIENOPYRIMIDINES THAT INTERACT WITH THE RAS SUPERFAMILY FOR THE TREATMENT OF CANCERS, INFLAMMATORY DISEASES, RASOPATHIES, AND FIBROTIC DISEASE” (SHY Therapeutics, LLC, priority 2020, published 2023).)
